Test results as given in patent US20170044150A1, “IDENTIFICATION OF COMPOUNDS WHICH INHIBIT ATG8-ATG3 PROTEIN-PROTEIN INTERACTION AND THEIR USE AS ANTIPARASITICAL AGENTS” (THE JOHNS HOPKINS UNIVERSITY, priority 2014, published 2017).
Read-outs that look alike come from different tables or passages of the source.

Legend:
[1] = system: P. falciparum 3D7 blood stages; conditions: asterisk / PubChem reported values; read-out: IC50 Blood stage, derived from the literature; cited from earlier work
[2] = target: PfAtg8-PfAtg3 interaction (Plasmodium falciparum, UniProt Q8IJK2); type: binding, P. falciparum
P. falciparum 3D7 = assay: SYBR Green I growth inhibition assay, blood stage; type: cell-based; conditions: Plasmodium falciparum
Procedure: P. falciparum blood stage culturing. P. falciparum 3D7 and FCR3 cultures were maintained using modified, previously published methods at 37° C., 2% hematocrit of human red blood cells (Science 1976, 193, 673-675). Complete culture media consisted of sterile RPMI 1640 media (Life Technologies), supplemented with 10% human serum, 0.005% hypoxanthine, and buffered with final concentrations of 0.6% HEPES and 0.26% NaHCO3. The FCR3 strain was maintained at 3% CO2 and 5% O2, 92% N2 atmosphere, while the 3D7 strain was maintained at 5% CO2, 5% O2, 90% N2 atmosphere.
SYBR Green I growth inhibition assay. 10 μL of 10× compound diluted in RPMI 1640 media (Gibco) with a constant concentration of 1% DMSO was added to a 96 well plate (Costar), 90 μL of 1.5% ring stage, synchronized with 5% w/v sorbitol P. falciparum 3D7 parasites, 1% hematocrit, in culture media with 10% v/v human serum with 10 μg/mL gentamycin. Each compound concentration and 1% v/v DMSO controls were run in triplicate. Plates were incubated at 37° C. in 5% O2, 5% CO2 and 90% N2 for 72 hours. Plates were frozen, thawed, and incubated with 100-μL 2× SYBR green in lysis buffer (20 mM Tris pH 7.5, 5 mM EDTA, 0.008% Saponin, 0.08% TritonX-100) in the dark for at least one hour. Fluorescence was measured with a plate reader (HTS 7000, Perkin Elmer) at excitation/emission wavelengths of 485/535 nm.
Plasmodium parasite growth inhibition assay. P. falciparum 3D7 parasites were cultured as previously described (J Med Chem 57:4521-4531(2014)). Briefly, the parasites were cultured in 10% v/v human serum with 10 μg/mL gentamycin and synchronized with 5% w/v sorbitol. 1.5% ring stage parasites were added to 96 well plates (Costar) containing serial dilutions, performed in triplicate, of compound in RPMI 1640 media (Gibco). Plates were incubated at 37° C. in 5% O2, 5% CO2, and 90% N2 for 72 h. Plates were frozen, thawed, and incubated with 100 μL 2× SYBR green in lysis buffer (20 mM Tris pH 7.5, 5 mM EDTA, 0.008% Saponin, 0.08% TritonX-100) in the dark for 1 h. Fluorescence was measured with a plate reader (HTS 7000, PerkinElmer) at excitation/emission wavelengths of 485/535 nm.

[3] = system: PfAtg8-PfAtg3 interaction; assay: SPR protein-protein interaction assay, PfAtg8-PfAtg3 (VLS compounds); type: binding, P. falciparum; conditions: 500 μM
Procedure: Surface Plasmon Resonance (SPR) protein-protein interaction assay. All measurements were carried out on a BiaCore 3000 instrument. We used the previously described SPR competition assay to test inhibition of the PfAtg8-PfAtg3 and hLC3-hAtg3 interaction. The standard running buffer was 10 mM HEPES, 150 mM NaCl, 0.01% Tween 20, adjusted to pH 7.5. Prior to performing SPR assays, all solutions were sterile filtered and degassed for 1 h at room temperature. For small molecule inhibitor studies, the same running buffer was supplemented with 1% DMSO. All dose dependency measurements were carried out in triplicate and corrected for DMSO absorption effects using double referencing with interspersed blank injections and an untreated flow cell on the SPR chip and the SPR analysis software Scrubber 2.0 (BioLogics). For each interaction pair, a new CM5 SPR chip was used. To exclude surface decay during the experiment, positive control injections were interspersed every 12th injection. For all interaction studies, the Atg3 homologue was immobilized and the corresponding Atg8 partner was passed as an analyte over the chip in either the presence or absence of small molecule inhibitors, dissolved to 100 mM in 100% DMSO and tested at 500 μM final concentration. Prior to the immobilization of Atg3 to an SPR chip, a pH scouting from pH 6.0 to pH 4.0 in intervals of 0.5 pH units was carried out to determine the best pre-concentration conditions for immobilization. Briefly, flow cells of an SPR chip were activated using N-hydroxysuccinimide (NHS) and 1-ethyl-3-(3-dimethylaminopropyl)carbodiimide (EDC) for 7 min with a flow rate of 20 μl/min. For PfAtg3 immobilization, a solution of 50 μg/ml of PfAtg3 in 10 mM sodium acetate pH 5.0 was passed over one flow cell until >500 Response Units (RU) were captured. The same procedure was followed for the immobilization of hAtg3. Activated free binding sites on the chip were blocked using 1 M ethanolamine for an additional 7 min. All experiments were carried out at 25° C. with a 40 μl/min flow rate and 75 s contact time, followed by a 1 min dissociation time and a 25 μl regeneration injection of 2 M MgCl2.
The dose-response curves were used to determine the approximate concentration of analyte (PfAtg8 or hLC3) needed to obtain a particular response unit (RU), typically in the range of 100-150 RU's. A fixed amount of analyte was then passed over the chip resulting in at least 100-150 response units (RU) in the absence of small molecules.

[4] = inhibition of PfAtg8-PfAtg3 interaction

PfAtg8-PfAtg3 interaction (Plasmodium falciparum, UniProt Q8IJK2), sequence (Q8IJK2 whole entry C32I/C119S/C122S, form open): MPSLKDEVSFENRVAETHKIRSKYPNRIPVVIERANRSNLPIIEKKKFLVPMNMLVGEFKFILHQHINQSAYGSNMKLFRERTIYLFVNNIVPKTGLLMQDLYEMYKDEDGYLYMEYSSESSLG

CSc1ccccc1C(=O)Nc1nc(-c2ccccn2)cs1 [Compound 2, 2-methylsulfanyl-N-(4-pyridin-2-yl-1,3-thiazol-2-yl)benzamide]
IC50 [1]: 200 nM | LEAN (SPR) ([2]; -log (IC50)/number of heavy atoms): 0.22 | IC50 ([2]; read-out: IC50 SPR, inhibition of PfAtg8-PfAtg3 interaction): 15000 nM

O=C(Nc1nc(-c2ccccn2)cs1)c1ccccc1Br [Compound 3, 2-bromo-N-(4-pyridin-2-yl-1,3-thiazol-2-yl)benzamide]
IC50 [1]: 1580 nM

Cc1ccc(-c2cc3c(SCC(=O)Nc4cc(C(F)(F)F)ccc4Cl)nccn3n2)cc1 [Compound 4, N-[2-chloro-5-(trifluoromethyl)phenyl]-2-[2-(4-methylphenyl)pyrazolo[1,5-a]pyrazin-4-yl]sulfanylacetamide]
IC50 SPR [2, 4]: None

CN(C)c1ccc(N2C(N)=NC(N)=NC2(C)C)cc1 [Compound 5, 1-[4-(dimethylamino)phenyl]-6,6-dimethyl-1,3,5-triazine-2,4-diamine]
IC50 SPR [2, 4]: None

Brc1ccc(Nc2nc3ccccc3nc2Nc2ccc(Br)cc2)cc1 [Compound 6, 2-N,3-N-bis(4-bromophenyl)quinoxaline-2,3-diamine]
IC50 SPR [2, 4]: None

COC(OC)c1ccc(C(=O)Nc2nc(-c3ccccn3)cs2)cc1 [Compound 9, 4-(Dimethoxymethyl)-N-[4-(pyridin-2-yl)-1,3-thiazol-2-yl]benzamide]
IC50 (P. falciparum 3D7; 3D7, two to three experiments, read-out: average IC50): 1480 ± 600 nM

O=C(NCC1Cc2cccc(-c3ccncc3)c2O1)c1csc2c1CCCC2 (stereo not shown) [Compound C11]
precipitation at the concentration used in the assay [3]: either precipitated or caused protein precipitation

O=C(NCc1ccco1)C1CCN(S(=O)(=O)c2ccc(Br)cc2)CC1 [Compound C13, 1-(4-bromobenzene-sulfonyl)-N-(furan-2-ylmethyl)piperidine-4-carboxamide]
precipitation at the concentration used in the assay [3]: either precipitated or caused protein precipitation

CCc1c(C(=O)NCc2csc(-c3cnccn3)n2)[nH]c2ccccc12 [Compound C19, 3-ethyl-N-([2-(pyrazin-2-yl)-1,3-thiazol-4-yl]methyl)-1H-indole-2-carboxamide]
precipitation at the concentration used in the assay [3]: either precipitated or caused protein precipitation

O=C(NCc1csc(-c2cnccn2)n1)c1cc2sccc2[nH]1 [Compound C30, N-([3-(pyrazin-3-yl)-1,3-thiazol-4-yl]methyl)-4H-thieno[3,2-b]pyrrole-5-carboxamide]
precipitation at the concentration used in the assay [3]: either precipitated or caused protein precipitation

CCN(CC)CCCC(C)Nc1ccnc2cc(Cl)ccc12 (stereo not shown) [chloroquine, reference compound]
IC50 (P. falciparum 3D7; 3D7): 3 ± 2 nM
